Assay results reported in ChEMBL document CHEMBL1140998, “RNA bandages for photoregulating in vitro protein synthesis” (Bioorg Med Chem Lett, 2008).
The source made the active and inactive calls. The rule behind the calls is not given here.

Experiments:
Aequorea victoria [1] = assay: Blockade of Aequorea victoria GFP mRNA (1-26) translation activity assessed as reduction in protein expression level at a drug:mRNA molar ratio of 2:1 measured prior to UV irradiation by gel electrophoresis; set-up: scale not given: the % may be the effect or the level left
Aequorea victoria [2] = assay: Blockade of Aequorea victoria GFP mRNA (1-26) translation activity assessed as reduction in protein expression level at a drug:mRNA molar ratio of 2:1 measured after UV irradiation by gel electrophoresis
Aequorea victoria [3] = assay: Binding affinity to Aequorea victoria GFP mRNA (1-26) assessed as change in melting temperature
Aequorea victoria [4] = assay: Binding affinity to Aequorea victoria GFP mRNA (1-26) assessed as melting temperature
Aequorea victoria [5] = assay: Blockade of Aequorea victoria GFP mRNA (1-26) translation activity assessed as reduction in protein expression level at a drug:mRNA molar ratio of 12:1 measured prior to UV irradiation by gel electrophoresis; set-up: scale not given: the % may be the effect or the level left
Aequorea victoria [6] = assay: Blockade of Aequorea victoria GFP mRNA (1-26) translation activity assessed as reduction in protein expression level measured after UV irradiation at a drug:mRNA molar ratio of 12:1 measured after UV irradiation by gel electrophoresis

Row | Activity (Aequorea victoria [1]) | Activity (Aequorea victoria [2]) | ΔTm (Aequorea victoria [3]) | Tm (Aequorea victoria [4]) | Activity (Aequorea victoria [5]) | Activity (Aequorea victoria [6]) | SMILES
1 | 100% | Active | 20 °C | 72.4 °C |  |  | CC(OC(=O)NCCCCCCOC[C@H]1O[C@@H](n2ccc(N)nc2=O)[C@H](O)[C@@H]1OP(=O)(O)OC[C@H]1O[C@@H](n2ccc(=O)[nH]c2=O)[C@H](O)[C@@H]1OP(=O)(O)OC[C@H]1O[C@@H](n2cnc3c(N)ncnc32)[C@H](O)[C@@H]1OP(=O)(O)OC[C@H]1O[C@@H](n2cnc3c(=O)[nH]c(N)nc32)[C@H](O)[C@@H]1OP(=O)(O)OC[C@H]1O[C@@H](n2ccc(N)nc2=O)[C@H](O)[C@@H]1OP(=O)(O)OC[C@H]1O[C@@H](n2ccc(N)nc2=O)[C@H](O)[C@@H]1OP(=O)(O)OC[C@H]1O[C@@H](n2cnc3c(N)ncnc32)[C@H](O)[C@@H]1OP(=O)(O)OC[C@H]1O[C@@H](n2cnc3c(=O)[nH]c(N)nc32)[C@H](O)[C@@H]1OC[C@H]1O[C@@H](n2ccc(N)nc2=O)[C@H](O)[C@@H]1OC[C@H]1O[C@@H](n2ccc(=O)[nH]c2=O)[C@H](O)[C@@H]1O)c1cc(CN2C(=O)CC(SCCCO[C@H]3[C@@H](O)[C@H](n4ccc(=O)[nH]c4=O)O[C@@H]3COP(=O)(O)O[C@H]3[C@@H](O)[C@H](n4cnc5c(=O)[nH]c(N)nc54)O[C@@H]3COP(=O)(O)O[C@H]3[C@@H](O)[C@H](n4ccc(=O)[nH]c4=O)O[C@@H]3COP(=O)(O)O[C@H]3[C@@H](O)[C@H](n4cnc5c(=O)[nH]c(N)nc54)O[C@@H]3COP(=O)(O)O[C@H]3[C@@H](O)[C@H](n4cnc5c(=O)[nH]c(N)nc54)O[C@@H]3COP(=O)(O)O[C@H]3[C@@H](O)[C@H](n4ccc(=O)[nH]c4=O)O[C@@H]3COP(=O)(O)O[C@H]3[C@@H](O)[C@H](n4cnc5c(N)ncnc54)O[C@@H]3COP(=O)(O)O[C@H]3[C@@H](O)[C@H](n4ccc(N)nc4=O)O[C@@H]3CO[C@H]3[C@@H](O)[C@H](n4ccc(N)nc4=O)O[C@@H]3CO[C@H]3[C@@H](O)[C@H](n4cnc5c(=O)[nH]c(N)nc54)O[C@@H]3CO)C2=O)ccc1[N+](=O)[O-] (some centres not stated)
2 |  |  | 32 °C | 62.2 °C | 10% | Active | CC(OC(=O)NCCCCCCOC[C@H]1O[C@@H](n2ccc(N)nc2=O)[C@H](O)[C@@H]1OP(=O)(O)OC[C@H]1O[C@@H](n2ccc(=O)[nH]c2=O)[C@H](O)[C@@H]1OP(=O)(O)OC[C@H]1O[C@@H](n2cnc3c(N)ncnc32)[C@H](O)[C@@H]1OP(=O)(O)OC[C@H]1O[C@@H](n2cnc3c(=O)[nH]c(N)nc32)[C@H](O)[C@@H]1OP(=O)(O)OC[C@H]1O[C@@H](n2ccc(N)nc2=O)[C@H](O)[C@@H]1OP(=O)(O)OC[C@H]1O[C@@H](n2ccc(N)nc2=O)[C@H](O)[C@@H]1OP(=O)(O)OC[C@H]1O[C@@H](n2cnc3c(N)ncnc32)[C@H](O)[C@@H]1OP(=O)(O)OC[C@H]1O[C@@H](n2cnc3c(=O)[nH]c(N)nc32)[C@H](O)[C@@H]1OC[C@H]1O[C@@H](n2ccc(N)nc2=O)[C@H](O)[C@@H]1OC[C@H]1O[C@@H](n2ccc(=O)[nH]c2=O)[C@H](O)[C@@H]1O)c1cc(CN2C(=O)CC(SCCCO[C@H]3[C@@H](O)[C@H](n4ccc(=O)[nH]c4=O)O[C@@H]3COP(=O)(O)O[C@H]3[C@@H](O)[C@H](n4cnc5c(=O)[nH]c(N)nc54)O[C@@H]3COP(=O)(O)O[C@H]3[C@@H](O)[C@H](n4ccc(=O)[nH]c4=O)O[C@@H]3COP(=O)(O)O[C@H]3[C@@H](O)[C@H](n4cnc5c(=O)[nH]c(N)nc54)O[C@@H]3COP(=O)(O)O[C@H]3[C@@H](O)[C@H](n4cnc5c(=O)[nH]c(N)nc54)O[C@@H]3COP(=O)(O)O[C@H]3[C@@H](O)[C@H](n4ccc(=O)[nH]c4=O)O[C@@H]3COP(=O)(O)O[C@H]3[C@@H](O)[C@H](n4cnc5c(N)ncnc54)O[C@@H]3COP(=O)(O)O[C@H]3[C@@H](O)[C@H](n4ccc(N)nc4=O)O[C@@H]3CO)C2=O)ccc1[N+](=O)[O-] (some centres not stated)
3 | 100% | Active | 24 °C | 81.2 °C |  |  | CC(OC(=O)NCCCCCCOC[C@H]1O[C@@H](n2ccc(N)nc2=O)[C@H](O)[C@@H]1OP(=O)(O)OC[C@H]1O[C@@H](n2ccc(N)nc2=O)[C@H](O)[C@@H]1OP(=O)(O)OC[C@H]1O[C@@H](n2cnc3c(N)ncnc32)[C@H](O)[C@@H]1OP(=O)(O)OC[C@H]1O[C@@H](n2cnc3c(=O)[nH]c(N)nc32)[C@H](O)[C@@H]1OP(=O)(O)OC[C@H]1O[C@@H](n2ccc(N)nc2=O)[C@H](O)[C@@H]1OP(=O)(O)OC[C@H]1O[C@@H](n2ccc(=O)[nH]c2=O)[C@H](O)[C@@H]1OP(=O)(O)OC[C@H]1O[C@@H](n2ccc(=O)[nH]c2=O)[C@H](O)[C@@H]1OP(=O)(O)OC[C@H]1O[C@@H](n2cnc3c(=O)[nH]c(N)nc32)[C@H](O)[C@@H]1OP(=O)(O)OC[C@H]1O[C@@H](n2cnc3c(=O)[nH]c(=O)[nH]c32)[C@H](O)[C@@H]1OP(=O)(O)OC[C@H]1O[C@@H](n2cnc3c(=O)[nH]c(=O)[nH]c32)[C@H](O)[C@@H]1OP(=O)(O)OC[C@H]1O[C@@H](n2ccc(=O)[nH]c2=O)[C@H](O)[C@@H]1OP(=O)(O)OC[C@H]1O[C@@H](n2ccc(N)nc2=O)[C@H](O)[C@@H]1O)c1cc(CN2C(=O)CC(SCCCO[C@H]3[C@@H](O)[C@H](n4cnc5c(=O)[nH]c(N)nc54)O[C@@H]3COP(=O)(O)O[C@H]3[C@@H](O)[C@H](n4cnc5c(N)ncnc54)O[C@@H]3COP(=O)(O)O[C@H]3[C@@H](O)[C@H](n4ccc(=O)[nH]c4=O)O[C@@H]3COP(=O)(O)O[C@H]3[C@@H](O)[C@H](n4ccc(N)nc4=O)O[C@@H]3CO[C@@H]3[C@H](O)[C@@H](COP(=O)(O)O[C@H]4[C@@H](O)[C@H](n5cnc6c(=O)[nH]c(N)nc65)O[C@@H]4COP(=O)(O)O[C@H]4[C@@H](O)[C@H](n5ccc(=O)[nH]c5=O)O[C@@H]4COP(=O)(O)O[C@H]4[C@@H](O)[C@H](n5cnc6c(=O)[nH]c(N)nc65)O[C@@H]4COP(=O)(O)O[C@H]4[C@@H](O)[C@H](n5cnc6c(=O)[nH]c(N)nc65)O[C@@H]4COP(=O)(O)O[C@H]4[C@@H](O)[C@H](n5ccc(=O)[nH]c5=O)O[C@@H]4COP(=O)(O)O[C@H]4[C@@H](O)[C@H](n5cnc6c(N)ncnc65)O[C@@H]4COP(=O)(O)O[C@H]4[C@@H](O)[C@H](n5ccc(N)nc5=O)O[C@@H]4CO)O[C@H]3n3ccc(=O)[nH]c3=O)C2=O)ccc1[N+](=O)[O-] (some centres not stated)
